The assay addresses RagB-RagC heterodimer (RagB monitored) (Homo sapiens, UniProt Q5VZM2). Kind of assay: GDP dissociation assay. It counts as binding. The conditions noted are these: GDP on wild-type RagB with Rag^X partner; not altered by FLCN-FNIP.

The values below come from PMC3867817 (Molecular cell, 2013).

Sequence of RagB-RagC heterodimer (RagB monitored) (Q5VZM2 whole entry): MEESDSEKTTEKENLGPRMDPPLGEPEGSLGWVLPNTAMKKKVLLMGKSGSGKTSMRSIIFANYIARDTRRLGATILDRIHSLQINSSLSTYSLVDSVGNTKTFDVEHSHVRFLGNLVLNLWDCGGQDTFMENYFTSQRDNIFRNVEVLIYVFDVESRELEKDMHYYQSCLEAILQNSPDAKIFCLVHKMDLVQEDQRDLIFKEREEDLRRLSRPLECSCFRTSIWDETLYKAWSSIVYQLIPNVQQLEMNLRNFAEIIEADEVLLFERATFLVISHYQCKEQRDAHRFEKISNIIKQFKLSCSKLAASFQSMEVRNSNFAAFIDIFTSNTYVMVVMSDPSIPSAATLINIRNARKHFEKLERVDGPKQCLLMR
Sequence of RagB-RagC heterodimer (RagB monitored) (Q9HB90 2-399 D181N partner): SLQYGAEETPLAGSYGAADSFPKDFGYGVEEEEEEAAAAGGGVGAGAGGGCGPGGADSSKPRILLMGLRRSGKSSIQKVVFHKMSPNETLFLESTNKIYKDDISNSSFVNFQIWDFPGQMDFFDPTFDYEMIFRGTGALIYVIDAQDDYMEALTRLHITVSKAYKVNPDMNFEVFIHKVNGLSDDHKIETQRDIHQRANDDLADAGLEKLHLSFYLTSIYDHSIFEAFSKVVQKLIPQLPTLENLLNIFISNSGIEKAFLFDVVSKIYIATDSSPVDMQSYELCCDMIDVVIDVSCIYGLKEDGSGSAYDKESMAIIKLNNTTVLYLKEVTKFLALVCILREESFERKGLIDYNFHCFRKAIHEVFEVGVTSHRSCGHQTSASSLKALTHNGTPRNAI

As for `Nc1nc2c(ncn2[C@@H]2O[C@H](COP(=O)(O)OP(=O)(O)O)[C@@H](O)[C@H]2O)c(=O)[nH]1` [GDP], the GDP dissociation assay result was “did not stimulate or inhibit the dissociation of GDP from RagB or RagC”.
